This note sets out measurements from article PMC7830743 (Journal of medicinal chemistry, 2020).

The nature of data set [1]: Metabolite ID. The data set is classed as in vitro ADME. The following applies: also in the presence of GSH.
Data set [2] in a line: Liver cytosolic stability. The data set is classed as in vitro ADME, and rat. To be noted: human, mouse, rat, liver cytosol.
Data set [3] deals with tumor LDH activity (A673 flank xenograft). Description: In vivo LDHA activity in A673 xenograft tumor mouse model. To be noted: single IV 50 mg/kg, A673 xenograft mice.
Data set [4] in a line: Ames assay.
Data set [5] deals with T1, CYP450 2B6 (Homo sapiens, UniProt P20813).
T1 sequence (P20813 1-491): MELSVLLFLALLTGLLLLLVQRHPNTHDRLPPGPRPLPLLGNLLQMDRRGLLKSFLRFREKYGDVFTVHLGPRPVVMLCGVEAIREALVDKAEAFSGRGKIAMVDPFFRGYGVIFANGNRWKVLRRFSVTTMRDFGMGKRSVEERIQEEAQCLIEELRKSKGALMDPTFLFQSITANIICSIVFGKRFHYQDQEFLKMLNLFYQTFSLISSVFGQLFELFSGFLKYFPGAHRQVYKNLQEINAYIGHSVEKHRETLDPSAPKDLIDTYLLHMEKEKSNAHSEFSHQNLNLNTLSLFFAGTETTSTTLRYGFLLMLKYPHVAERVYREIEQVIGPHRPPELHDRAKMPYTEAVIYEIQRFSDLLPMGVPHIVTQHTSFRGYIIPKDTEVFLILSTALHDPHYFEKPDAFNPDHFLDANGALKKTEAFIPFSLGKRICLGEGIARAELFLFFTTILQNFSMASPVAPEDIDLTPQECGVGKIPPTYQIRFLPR
Description: CYP450 inhibition, 2B6. The data set is classed as in vitro ADME.

Data set [6] can be described thus: Mouse pharmacokinetic studies. The data set is classed as in vivo, CD1 mice. To be noted: male, CD1, mouse, plasma, iv, 10 mg/kg.
Data set [7] is described as follows: Metabolic stability in hepatocytes. The data set is classed as in vitro ADME, and mouse. To be noted: rat, dog, mouse.
Data set [8] can be described thus: BBB-PAMPA permeability assay. The data set is classed as in vitro ADME. To be noted: pH 7.4. (In general: In PAMPA a lipid-coated filter parts donor from acceptor wells.)
The test system of data set [9] is CYP. Kind of data set: CYP induction. The data set is classed as in vitro ADME. The following applies: at 10 μM.
Data set [10] deals with T2, CYP450 2C8 (Homo sapiens, UniProt P10632).
T2 sequence (P10632 1-490): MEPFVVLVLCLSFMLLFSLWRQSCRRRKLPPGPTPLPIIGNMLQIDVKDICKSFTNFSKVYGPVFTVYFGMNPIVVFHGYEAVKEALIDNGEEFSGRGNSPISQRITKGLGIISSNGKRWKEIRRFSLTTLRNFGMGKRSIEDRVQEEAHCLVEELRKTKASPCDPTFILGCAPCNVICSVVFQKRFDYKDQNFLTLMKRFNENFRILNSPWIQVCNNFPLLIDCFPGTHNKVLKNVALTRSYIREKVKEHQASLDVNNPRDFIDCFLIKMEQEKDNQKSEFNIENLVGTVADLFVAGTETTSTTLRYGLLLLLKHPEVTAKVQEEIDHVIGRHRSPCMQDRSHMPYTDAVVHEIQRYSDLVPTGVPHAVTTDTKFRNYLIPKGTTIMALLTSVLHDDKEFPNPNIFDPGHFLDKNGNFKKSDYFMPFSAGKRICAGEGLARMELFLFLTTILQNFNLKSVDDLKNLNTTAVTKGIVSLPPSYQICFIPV
Kind of data set: CYP450 inhibition, 2C8. The data set is classed as in vitro ADME.

By half-life is commonly meant the time needed for the level to fall by half in the phase considered. Low values mean fast loss, high ones slow loss. Usually IC50 stands for the concentration that gives 50% inhibition. Higher therefore signals weaker potency in that assay. As a reminder, the clearance is a measure of how efficiently the substance is removed, as volume per time.

“Also recorded” adds a separate entry of the source.

Take `Cc1ccc(C#Cc2cccc(-c3nn(-c4nc(C(=O)O)cs4)c(CC4CC4)c3Cc3ccc(S(N)(=O)=O)c(F)c3)c2)s1` [Compound 52, 2-(5-(Cyclopropylmethyl)-4-(3-fluoro-4-sulfamoylbenzyl)-3-(3((5-methylthiophen-2-yl)-ethynyl)phenyl)-1H-pyrazol-1-yl)thiazole4-carboxylic Acid]: in data set [1], the “metabolite ID (in vitro)” value is given as “no significant phase I or II metabolites”. Moreover, the half-life in [2] was > 2 h; in data set [7] it was > 2.5 h. In data set [3], the “effect on LDH activity in tumors (in words)” value is on record as “significantly reduced”. In addition, in [4], the Ames entry is reported as “not active; also recorded: negative”. In addition, the IC50 stood at 14 µM in [5] and 7.5 µM in data set [10]. This compound also registered a clearance at 24 h in data set [6] of 10.4 mL/min/kg. In addition, the PAMPA-BBB permeability entry in data set [8] is listed as “low permeability”. The CYP induction result in [9] is listed as “no induction at 10 μM”.
